{"source": "PubChem BioAssay (NCI)", "assay_in_all_cases": "NCI anticancer screen, dose series, 48 h", "key": {"UO-31 renal": {"tested_on": "UO-31 renal"}, "A498 renal": {"tested_on": "A498 renal"}, "OVCAR-3 ovarian": {"tested_on": "OVCAR-3 ovarian"}, "DU-145 prostate": {"tested_on": "DU-145 prostate"}, "SK-MEL-2 melanoma": {"tested_on": "SK-MEL-2 melanoma"}, "TK-10 renal": {"tested_on": "TK-10 renal"}, "MDA-MB-231 breast": {"tested_on": "MDA-MB-231 breast"}, "NCI-H23 lung": {"tested_on": "NCI-H23 lung"}, "K-562 leukemia": {"tested_on": "K-562 leukemia"}, "MDA-MB-435": {"tested_on": "MDA-MB-435"}}, "note": "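These data come from cells grown in 96-well plates and exposed to compound for 48 hours at five concentrations. Here, GI50 denotes the concentration required for 50% inhibition of growth. TGI marks complete inhibition of growth.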"}
{"smiles": "COc1ccc(C2CC(=O)c3c(O)c(OC)c(OC)c(OC)c3O2)cc1O", "note": "(stereo not given)", "values": [{"measurement": "GI50", "setting": "UO-31 renal", "value": 2.18, "unit": "µM"}, {"measurement": "TGI", "setting": "UO-31 renal", "value": "> 100", "unit": "µM"}, {"measurement": "GI50", "setting": "A498 renal", "value": 2.34, "unit": "µM"}, {"measurement": "TGI", "setting": "A498 renal", "value": 33.2, "unit": "µM"}, {"measurement": "GI50", "setting": "OVCAR-3 ovarian", "value": 0.0627, "unit": "µM"}, {"measurement": "TGI", "setting": "OVCAR-3 ovarian", "value": 0.749, "unit": "µM"}, {"measurement": "GI50", "setting": "DU-145 prostate", "value": 0.225, "unit": "µM"}, {"measurement": "TGI", "setting": "DU-145 prostate", "value": "> 100", "unit": "µM"}, {"measurement": "GI50", "setting": "SK-MEL-2 melanoma", "value": 0.24, "unit": "µM"}, {"measurement": "TGI", "setting": "SK-MEL-2 melanoma", "value": "> 100", "unit": "µM"}, {"measurement": "GI50", "setting": "TK-10 renal", "value": "> 31.4", "unit": "µM"}, {"measurement": "TGI", "setting": "TK-10 renal", "value": "> 100", "unit": "µM"}, {"measurement": "GI50", "setting": "MDA-MB-231 breast", "value": 0.625, "unit": "µM"}, {"measurement": "TGI", "setting": "MDA-MB-231 breast", "value": "> 100", "unit": "µM"}, {"measurement": "GI50", "setting": "NCI-H23 lung", "value": 0.547, "unit": "µM"}, {"measurement": "TGI", "setting": "NCI-H23 lung", "value": "> 100", "unit": "µM"}, {"measurement": "GI50", "setting": "K-562 leukemia", "value": 0.0365, "unit": "µM"}, {"measurement": "TGI", "setting": "K-562 leukemia", "value": "> 100", "unit": "µM"}]}
{"smiles": "CSC1(CC(=O)N2CCCCC2)C(=O)Nc2ccccc21", "note": "(stereo not given)", "values": [{"measurement": "TGI", "setting": "UO-31 renal", "value": "> 100", "unit": "µM"}, {"measurement": "TGI", "setting": "A498 renal", "value": "> 100", "unit": "µM"}, {"measurement": "TGI", "setting": "MDA-MB-435", "value": "> 100", "unit": "µM"}, {"measurement": "TGI", "setting": "OVCAR-3 ovarian", "value": "> 100", "unit": "µM"}, {"measurement": "TGI", "setting": "DU-145 prostate", "value": "> 100", "unit": "µM"}, {"measurement": "TGI", "setting": "SK-MEL-2 melanoma", "value": "> 100", "unit": "µM"}, {"measurement": "TGI", "setting": "TK-10 renal", "value": "> 100", "unit": "µM"}, {"measurement": "TGI", "setting": "NCI-H23 lung", "value": "> 100", "unit": "µM"}, {"measurement": "TGI", "setting": "K-562 leukemia", "value": "> 100", "unit": "µM"}]}
{"smiles": "c1ccc2c(CNCCCCCCCCCCCCNCc3cccc4ccccc34)cccc2c1", "values": [{"measurement": "TGI", "setting": "UO-31 renal", "value": 3.06, "unit": "µM"}, {"measurement": "TGI", "setting": "A498 renal", "value": 19.7, "unit": "µM"}, {"measurement": "TGI", "setting": "OVCAR-3 ovarian", "value": 3.84, "unit": "µM"}, {"measurement": "TGI", "setting": "SK-MEL-2 melanoma", "value": 2.93, "unit": "µM"}, {"measurement": "TGI", "setting": "TK-10 renal", "value": 4.74, "unit": "µM"}, {"measurement": "TGI", "setting": "NCI-H23 lung", "value": 2.89, "unit": "µM"}, {"measurement": "TGI", "setting": "K-562 leukemia", "value": 2.11, "unit": "µM"}]}
{"smiles": "Cc1ccccc1NC(=O)c1ccc([N+](=O)[O-])cc1", "values": [{"measurement": "TGI", "setting": "UO-31 renal", "value": "> 100", "unit": "µM"}, {"measurement": "TGI", "setting": "A498 renal", "value": "> 100", "unit": "µM"}, {"measurement": "TGI", "setting": "OVCAR-3 ovarian", "value": "> 100", "unit": "µM"}, {"measurement": "TGI", "setting": "TK-10 renal", "value": "> 100", "unit": "µM"}, {"measurement": "TGI", "setting": "NCI-H23 lung", "value": "> 100", "unit": "µM"}, {"measurement": "TGI", "setting": "K-562 leukemia", "value": "> 100", "unit": "µM"}]}
{"smiles": "CCOC(=O)C(C(=O)OCC)=c1sc(=C(C(=O)OCC)C(=O)OCC)s1", "values": [{"measurement": "TGI", "setting": "OVCAR-3 ovarian", "value": "> 100", "unit": "µM"}, {"measurement": "TGI", "setting": "SK-MEL-2 melanoma", "value": "> 100", "unit": "µM"}, {"measurement": "TGI", "setting": "TK-10 renal", "value": "> 100", "unit": "µM"}, {"measurement": "TGI", "setting": "NCI-H23 lung", "value": "> 100", "unit": "µM"}, {"measurement": "TGI", "setting": "K-562 leukemia", "value": "> 100", "unit": "µM"}]}
{"smiles": "Cc1c(CC/C(=N\\Nc2ccc([N+](=O)[O-])cc2[N+](=O)[O-])c2ccccc2)c2ccccc2n1C", "values": [{"measurement": "TGI", "setting": "UO-31 renal", "value": "> 100", "unit": "µM"}, {"measurement": "TGI", "setting": "A498 renal", "value": "> 100", "unit": "µM"}, {"measurement": "TGI", "setting": "OVCAR-3 ovarian", "value": "> 100", "unit": "µM"}, {"measurement": "TGI", "setting": "SK-MEL-2 melanoma", "value": "> 100", "unit": "µM"}, {"measurement": "TGI", "setting": "TK-10 renal", "value": "> 100", "unit": "µM"}, {"measurement": "TGI", "setting": "NCI-H23 lung", "value": "> 100", "unit": "µM"}, {"measurement": "TGI", "setting": "K-562 leukemia", "value": "> 31.6", "unit": "µM"}]}
{"smiles": "COc1ccc(C(c2cc3c(cc2O)OCO3)N2CCOCC2)cc1OC", "note": "(stereo not given)", "values": [{"measurement": "TGI", "setting": "UO-31 renal", "value": 25, "unit": "µM"}, {"measurement": "TGI", "setting": "MDA-MB-435", "value": 23.4, "unit": "µM"}, {"measurement": "TGI", "setting": "OVCAR-3 ovarian", "value": 20.5, "unit": "µM"}, {"measurement": "TGI", "setting": "DU-145 prostate", "value": 24.4, "unit": "µM"}, {"measurement": "TGI", "setting": "SK-MEL-2 melanoma", "value": 32.5, "unit": "µM"}, {"measurement": "TGI", "setting": "TK-10 renal", "value": 26.1, "unit": "µM"}, {"measurement": "TGI", "setting": "MDA-MB-231 breast", "value": 15.8, "unit": "µM"}, {"measurement": "TGI", "setting": "NCI-H23 lung", "value": 15.9, "unit": "µM"}, {"measurement": "TGI", "setting": "K-562 leukemia", "value": 69.4, "unit": "µM"}]}
{"smiles": "CC(C)C1COC(c2ccc3ccccc3c2-c2c(O[Si](C)(C)C(C)(C)C)ccc3ccccc23)=N1", "note": "(stereo not given)", "values": [{"measurement": "TGI", "setting": "UO-31 renal", "value": 28.2, "unit": "µM"}, {"measurement": "TGI", "setting": "A498 renal", "value": 36.2, "unit": "µM"}, {"measurement": "TGI", "setting": "OVCAR-3 ovarian", "value": 31.5, "unit": "µM"}, {"measurement": "TGI", "setting": "SK-MEL-2 melanoma", "value": 30.4, "unit": "µM"}, {"measurement": "TGI", "setting": "TK-10 renal", "value": 33, "unit": "µM"}, {"measurement": "TGI", "setting": "NCI-H23 lung", "value": 30.7, "unit": "µM"}, {"measurement": "TGI", "setting": "K-562 leukemia", "value": 31.9, "unit": "µM"}]}
{"smiles": "FC(F)(F)c1nc(-c2ccccc2)oc1Sc1oc(-c2ccccc2)nc1C(F)(F)F", "values": [{"measurement": "TGI", "setting": "UO-31 renal", "value": "> 100", "unit": "µM"}, {"measurement": "TGI", "setting": "A498 renal", "value": "> 100", "unit": "µM"}, {"measurement": "TGI", "setting": "OVCAR-3 ovarian", "value": "> 100", "unit": "µM"}, {"measurement": "TGI", "setting": "SK-MEL-2 melanoma", "value": "> 100", "unit": "µM"}, {"measurement": "TGI", "setting": "TK-10 renal", "value": "> 100", "unit": "µM"}, {"measurement": "TGI", "setting": "NCI-H23 lung", "value": "> 100", "unit": "µM"}, {"measurement": "TGI", "setting": "K-562 leukemia", "value": "> 100", "unit": "µM"}]}
{"smiles": "CC(C)c1ccc2nc3ccc(C(=O)NCCN4CCN(c5ccccc5)CC4)cn3c(=O)c2c1", "values": [{"measurement": "TGI", "setting": "UO-31 renal", "value": "> 100", "unit": "µM"}, {"measurement": "TGI", "setting": "A498 renal", "value": "> 100", "unit": "µM"}, {"measurement": "TGI", "setting": "OVCAR-3 ovarian", "value": "> 100", "unit": "µM"}, {"measurement": "TGI", "setting": "DU-145 prostate", "value": "> 100", "unit": "µM"}, {"measurement": "TGI", "setting": "TK-10 renal", "value": "> 100", "unit": "µM"}, {"measurement": "TGI", "setting": "MDA-MB-231 breast", "value": "> 100", "unit": "µM"}, {"measurement": "TGI", "setting": "NCI-H23 lung", "value": "> 100", "unit": "µM"}, {"measurement": "TGI", "setting": "K-562 leukemia", "value": "> 100", "unit": "µM"}]}
{"smiles": "CC(C)(C)C(=O)/C=C/c1cccc(Oc2ccccc2)c1", "values": [{"measurement": "TGI", "setting": "UO-31 renal", "value": 28.8, "unit": "µM"}, {"measurement": "TGI", "setting": "A498 renal", "value": 37.1, "unit": "µM"}, {"measurement": "TGI", "setting": "SK-MEL-2 melanoma", "value": 27.6, "unit": "µM"}, {"measurement": "TGI", "setting": "K-562 leukemia", "value": 30.1, "unit": "µM"}]}
{"smiles": "CC(CN)[C@@H]1CC[C@]2(CO)CC[C@]3(C)[C@H](CC[C@@H]4[C@@]5(C)CCC(N)C(C)(C)[C@@H]5CC[C@]43C)[C@@H]12", "note": "(stereo not given in full)", "values": [{"measurement": "GI50", "setting": "UO-31 renal", "value": 1.55, "unit": "µM"}, {"measurement": "TGI", "setting": "UO-31 renal", "value": 3.04, "unit": "µM"}, {"measurement": "GI50", "setting": "A498 renal", "value": 1.84, "unit": "µM"}, {"measurement": "TGI", "setting": "A498 renal", "value": 3.31, "unit": "µM"}, {"measurement": "GI50", "setting": "MDA-MB-435", "value": 1.73, "unit": "µM"}, {"measurement": "TGI", "setting": "MDA-MB-435", "value": 3.26, "unit": "µM"}, {"measurement": "GI50", "setting": "OVCAR-3 ovarian", "value": 1.71, "unit": "µM"}, {"measurement": "TGI", "setting": "OVCAR-3 ovarian", "value": 3.24, "unit": "µM"}, {"measurement": "GI50", "setting": "DU-145 prostate", "value": 1.8, "unit": "µM"}, {"measurement": "TGI", "setting": "DU-145 prostate", "value": 3.3, "unit": "µM"}, {"measurement": "GI50", "setting": "SK-MEL-2 melanoma", "value": 1.93, "unit": "µM"}, {"measurement": "TGI", "setting": "SK-MEL-2 melanoma", "value": 3.6, "unit": "µM"}, {"measurement": "GI50", "setting": "TK-10 renal", "value": 1.69, "unit": "µM"}, {"measurement": "TGI", "setting": "TK-10 renal", "value": 3.1, "unit": "µM"}, {"measurement": "GI50", "setting": "MDA-MB-231 breast", "value": 1.5, "unit": "µM"}, {"measurement": "TGI", "setting": "MDA-MB-231 breast", "value": 3.05, "unit": "µM"}, {"measurement": "GI50", "setting": "NCI-H23 lung", "value": 1.85, "unit": "µM"}, {"measurement": "TGI", "setting": "NCI-H23 lung", "value": 3.7, "unit": "µM"}]}
